# Measured values from US8846788B2, “Polyacetal resin composition, resin molded article, and method and agent for improving polyacetal resin raw material composition” (Mitsubishi Engineering-Plastics Corporation, priority 2008, dated 2014).
# Assay: Solubility relative to 100 g of water at 20° C.
# Format: physicochemical
# Conditions: per 100 g of water
row,solubility relative to 100 g of water,Compound
1,≤ 0.01 g,"NNC(=O)c1ccc(C(=O)NN)cc1 [Dihydrazide compound-1, terephthalic acid dihydrazide]"
2,9.1 g,"NNC(=O)CCCCC(=O)NN [Dihydrazide compound-3, adipic acid dihydrazide, reference compound]"
3,≤ 0.2 g,NNC(=O)C(=O)NN [oxalic acid dihydrazide]

row,Compound,solubility relative to 100 g of water
1,"NNC(=O)CCCCCCCCCCCCCCCCCCC(=O)NN [1,18-octadecane dicarbohydrazide]",≤ 0.1 g
2,"NNC(=O)CCCCCCCCCCC(=O)NN [Dihydrazide compound-2, 1,10-dodecane diacid dihydrazide]",≤ 0.01 g

# Assay: Vapor pressure at 20° C.
# Format: physicochemical
# Conditions: not given
row,Compound,vapor pressure
1,"CC(C)(c1ccccc1)c1cc(-n2nc3ccccc3n2)c(O)c(C(C)(C)c2ccccc2)c1 [Tinuvin 234, 2-(2H-benzotriazol-2-yl)-4,6-bis(1-methyl-1-phenylethyl)phenol]",2.0×10^−10 Pa
